Assays:
U87MG tumorspheres = assay: Tumorsphere formation from U87MG cells in NBM; assay type: cell-based, human; settings: NBM with B27, EGF+bFGF
Protocol: FIG. 9B, first panel, illustrates cells of U87MG cultured in DMEM. Cells cultured in NBM with B27 supplement in the presence of EGF+bFGF developed into tumorspheres within 3-5 days (see FIG. 9A, middle panel).
(§1) Gliosphere culture. To generate gliospheres, the following standardized method was utilized. Briefly, U87MG and T98G glioblastoma cells were dissociated from DMEM cultures using trypsin-EDTA solution and reseeded in neurobasal medium (NBM) supplemented with B27 in the presence of 10 ng/ml bFGF and EGF. The cells (5×10^4/ml/well) were cultured in 12 well plates in 5% CO2-incubator at 37° C. with a medium change of every 2-3 days. The cells were photographed (200× and 400×) under phase contrast microscope (AX70, Olympus Optical, Japan) after 10-12 days. The primary human glioblastoma cells were also dissociated from DMEM using trypsin-EDTA. The cells were cultured (1×10^5 cells/ml/well) in neurobasal medium (NBM) supplemented with B27 in the presence of 10 ng/ml of bFGF and EGF in 12 well plates in 5% CO2-incubator at 37° C. The resulting tumorspheres were photographed under light microscope.

[1] = tested on: U87MG and T98G human glioma cells, their respective BTSC's, and CD133+ cells; assay: Proliferation of glioma cells, BTSC's and CD133+ cells, result in words; assay type: cell-based
Protocol: (§2) The use of nuclear receptor agonists in the treatment of brain tumors was examined by testing the effect of the specific ligands on the proliferation of brain tumor and BTSC'S. Prior to studying the anti-tumor effect of melatonin, it was necessary to determine the viability of glioma and BTSC's in the cultures used in this study. […] Their proliferation was measured by WST-1 assay. The ligands for all six nuclear receptors induced anti-proliferative activity in brain tumor stem cells as well as human glioma cells. It was also noted that the selected nuclear receptor agonists induced anti-tumor activity in brain tumor stem cells and that the different agonists for the highly altered nuclear hormone receptors provided different levels of inhibition for brain tumor cells and BTSC's in cultures. As a result, the nuclear hormone receptors having altered expression and activation profile in BTSC can be selected to specifically target BTSC's. Additional information regarding the individual studies is provided below:
(§3) Proliferation assay. Proliferation of gliosphere cells was measured using WST-1 assay (Roche Applied Sciences, Indianapolis, Ind.) and ^3H thymidine uptake assay. Briefly, T98G and U87MG glioma and gliosphere cells were cultured in 96-well tissue culture plates (1×10^4/200 μl/well) in neurobasal medium with B27 serum supplement in the presence of 10 ng/ml EGF+bFGF and increasing doses of nuclear receptors in 5% CO2-incubator at 37° C. After 48 hrs, WST-1 reagent ([…]) was added and the absorbance was measured at 460 nm using 2100 microplate reader (Alpha Diagnostics Inc., San Antonio, Tex.) as a measure of viable cell count. This assay is based on the cleavage of the tetrazolium salt, WST-1, by mitochondrial dehydrogenases in viable cells and a decrease in OD corresponds to decrease in viable cell count. In some experiments, ^3H thymidine (0.5 μCi/ml) was added at 48 hours, the cells harvested after 72 hours using a Tomtech harvester 96 (Hamden, Conn., USA) and the amount of ^3H thymidine uptake counted on a Perkin Elmer Microbeta liquid scintillation counter to provide a measure of proliferation.

T98G-CD133+ cells = assay: WST-1 proliferation assay, T98G-CD133+ cells; assay type: cell-based; settings: Homo sapiens, anti-tumor activity, 48 hours
Protocol: as §2
(§4) Isolation and expansion of CD133+ BTSC: The CD133+ BTSC were isolated from human glioblastoma cells by magnetic bead technique using CD133 antibody (Miltenyi Biotec, Auburn, Calif., USA). The U87MG and T98G glioma cells and tumor spheres expanded as described above were dissociated by treatment with Trypsin-EDTA solution at 37° C. for 10 minutes. The cells (1×10^7 cells) were washed in cold sterile PBS, re-suspended in 100 μl blocking buffer (PBS, pH 7.2, 0.5% BSA, 2 mM EDTA) with 50 μl of FcR blocking reagents (Miltenyi Biotech, Auburn, Calif., USA) and incubated at 4° C. for 30 minutes. The cells were washed and re-suspended in 200 μl of anti-PE microbeads in the buffer and incubated at 4° C. for 30 minutes. The CD133+ cells were separated by passing through an LS column in the midi Macs separation unit. The column effluent was collected to provide a CD133 negative population. The columns were washed with buffer, removed from the Mac separation unit and placed in a sterile 15 ml tube. […] The cells obtained were counted and expanded in culture or used directly for the experiments described herein.
(§5) Proliferation assay. Proliferation of gliosphere cells was measured using WST-1 assay (Roche Applied Sciences, Indianapolis, Ind.) and ^3H thymidine uptake assay. […] After 48 hrs, WST-1 reagent ([…]) was added and the absorbance was measured at 460 nm using 2100 microplate reader (Alpha Diagnostics Inc., San Antonio, Tex.) as a measure of viable cell count. […] In some experiments, ^3H thymidine (0.5 μCi/ml) was added at 48 hours, the cells harvested after 72 hours using a Tomtech harvester 96 (Hamden, Conn., USA) and the amount of ^3H thymidine uptake counted on a Perkin Elmer Microbeta liquid scintillation counter to provide a measure of proliferation.

[2] = tested on: U87 BTSC's (brain tumor stem cells); assay: WST-1 proliferation assay, U87 BTSC's; assay type: cell-based; settings: Homo sapiens, anti-tumor activity, 48 hours
Protocol: (§6) The use of nuclear receptor agonists in the treatment of brain tumors was examined by testing the effect of the specific ligands on the proliferation of brain tumor and BTSC'S. Prior to studying the anti-tumor effect of melatonin, it was necessary to determine the viability of glioma and BTSC's in the cultures used in this study. […] Their proliferation was measured by WST-1 assay. […] Additional information regarding the individual studies is provided below:
as §1, §5

T98G human glioma cells = assay: WST-1 proliferation assay, T98G glioma cells; assay type: cell-based; settings: anti-tumor activity, 48 hours, read-out: EC50, T98-glioma
Protocol: as §2
(§7) Cell culture. The U87MG and T98G brain tumor cell-lines, established from human glioblastoma (Ponten, et al., 1968) were obtained from American Type Culture Collection (ATCC, Manassas, Va.). The cells were cultured in Dulbecco's Modified Eagle Medium (DMEM) (Invitrogen, California, USA) supplemented with 10% FBS, 1 mM Sodium pyruvate, 100 U/ml penicillin G, 100 μg/ml Streptomycin, 2 mM glutamine, 1 mM MEM nonessential amino acids and 50 μM 2-mercaptoethanol in 5% CO2 incubator at 37° C. The cells were dissociated using 0.25% trypsin, 0.53 mM EDTA solution and sub-cultured once in 3-5 days. Primary brain tumor tissue/cells were also obtained from the tissue repository at Methodist Research Institute and cultured (1×10^5 cells/ml/well) in DMEM medium supplemented with 10% FBS and sub-cultured once in 10-12 days.
as §3, with “This assay is based on the cleavage of the tetrazolium salt, WST-1, by mitochondrial dehydrogenases in viable cells and a decrease in OD corresponds to decrease in viable cell count.” left out

U87-CD133+ cells = assay: WST-1 proliferation assay, U87-CD133+ cells; assay type: cell-based; settings: Homo sapiens, anti-tumor activity, 48 hours
Protocol: as §2, §4, §5

T98G tumorspheres = assay: Tumorsphere formation from T98G glioblastoma cells in NBM; assay type: cell-based, human; settings: NBM with B27, EGF+bFGF
Protocol: Initially culture conditions were established for expanding BTSC's as tumorspheres from brain tumor cells in culture. […] The resulting tumorspheres increased substantially in size within 7 to 10 days. FIG. 1 illustrates typical glioblastoma cells cultured in DMEM supplemented with 10% FBS and the corresponding tumorspheres cultured in neurobasal medium (NBM) with B27 supplement and 10 ng/ml EGF+bFGF. The tumorspheres illustrated in FIG. 1 were photographed after 10 days (200×).
as §1

[3] = tested on: T98G BTSC's (brain tumor stem cells); assay: WST-1 proliferation assay, T98G BTSC's; assay type: cell-based; settings: Homo sapiens, anti-tumor activity, 48 hours, read-out: EC50, T98-BTSC
Protocol: as §6, §1, §5

U87MG human glioma cells = assay: WST-1 proliferation assay, U87 glioma cells; assay type: cell-based; settings: U-87 MG, anti-tumor activity, 48 hours
Protocol: as §2, §7
as §3, with “This assay is based on the cleavage of the tetrazolium salt, WST-1, by mitochondrial dehydrogenases in viable cells and a decrease in OD corresponds to decrease in viable cell count.” left out

EC50 [2] | EC50 (T98G human glioma cells) | EC50 (U87-CD133+ cells) | EC50 [3] | EC50 (U87MG human glioma cells) | Compound | tumorsphere size and number, U87MG (U87MG tumorspheres) | proliferation of glioma cells and BTSC's [1] | EC50 (T98G-CD133+ cells) | number and size of T98G tumorspheres (T98G tumorspheres)
– | – | – | – | – | CCCCCC=CC=C1C(=O)C=C[C@@H]1CC=CCCCC(=O)O [15d-PGJ2, 15-deoxy Δ^12,14-prostaglandin J2] | significantly decreased | inhibited the proliferation | – | –
72.5 ± 1.57 µM | 85 ± 5.59 µM | 17.6 ± 0.29 µM | 85.5 ± 22.4 µM | 20.3 ± 0.57 µM | CCCC(=O)SCCNC(=O)CCNC(=O)[C@H](O)C(C)(C)COP(=O)(O)OP(=O)(O)OC[C@H]1O[C@@H](n2cnc3c(N)ncnc32)[C@H](O)[C@@H]1OP(=O)(O)O [Butyryl CoA] | – | dose-dependent decrease in the proliferation | 54.7 ± 5.76 µM | significant and dose-dependent decrease
– | – | – | – | – | Clc1ccc(-c2nc3sccn3c2/C=N/OCc2ccc(Cl)c(Cl)c2)cc1 [CITCO] | – | inhibits the proliferation | – | significant and dose-dependent decrease
1.55 ± 0.43 µM | 4.85 ± 1 µM | 2.96 ± 0.21 µM | 12.2 ± 3.04 µM | 4.22 ± 0.23 µM | O=C(O)Cc1cccc(OCCCN(Cc2cccc(C(F)(F)F)c2Cl)CC(c2ccccc2)c2ccccc2)c1 [GW3965] | – | inhibits the proliferation | 3.28 ± 0.64 µM | significant and dose-dependent decrease
7.91 ± 1.34 µM | 31 ± 12 µM | 2.6 ± 0.25 µM | 44.7 ± 6.18 µM | 18.66 ± 0.18 µM | COc1ccc2[nH]cc(CCNC(C)=O)c2c1 [Melatonin] | – | inhibits the proliferation | 2.45 ± 0.43 µM | significant and dose-dependent decrease
– | 12.8 ± 1.97 µM | 1.2 ± 0.2 µM | – | 25.4 ± 4 µM | CO[C@H]1/C=C/O[C@@]2(C)Oc3c(C)c(O)c4c(O)c(c(/C=N/N5CCN(C)CC5)c(O)c4c3C2=O)NC(=O)/C(C)=C\C=C\[C@H](C)[C@H](O)[C@@H](C)[C@@H](O)[C@@H](C)[C@H](OC(C)=O)[C@@H]1C [Rifampicin] | – | – | 1.99 ± 0.47 µM | –
